The source of these data is US5134150A, “Inhibition of the 5-lipoxygenase pathway” (priority 1989, dated 1992).

Molecules are shown by their SMILES.

Assay [1] has as its target T1, 5-Lipoxygenase (Rattus norvegicus, UniProt P12527).
T1 construct: The activities of these enzymes in extracts of RBL-1 cells were assayed; host or cells: RBL-1
T1 sequence (P12527 1-673): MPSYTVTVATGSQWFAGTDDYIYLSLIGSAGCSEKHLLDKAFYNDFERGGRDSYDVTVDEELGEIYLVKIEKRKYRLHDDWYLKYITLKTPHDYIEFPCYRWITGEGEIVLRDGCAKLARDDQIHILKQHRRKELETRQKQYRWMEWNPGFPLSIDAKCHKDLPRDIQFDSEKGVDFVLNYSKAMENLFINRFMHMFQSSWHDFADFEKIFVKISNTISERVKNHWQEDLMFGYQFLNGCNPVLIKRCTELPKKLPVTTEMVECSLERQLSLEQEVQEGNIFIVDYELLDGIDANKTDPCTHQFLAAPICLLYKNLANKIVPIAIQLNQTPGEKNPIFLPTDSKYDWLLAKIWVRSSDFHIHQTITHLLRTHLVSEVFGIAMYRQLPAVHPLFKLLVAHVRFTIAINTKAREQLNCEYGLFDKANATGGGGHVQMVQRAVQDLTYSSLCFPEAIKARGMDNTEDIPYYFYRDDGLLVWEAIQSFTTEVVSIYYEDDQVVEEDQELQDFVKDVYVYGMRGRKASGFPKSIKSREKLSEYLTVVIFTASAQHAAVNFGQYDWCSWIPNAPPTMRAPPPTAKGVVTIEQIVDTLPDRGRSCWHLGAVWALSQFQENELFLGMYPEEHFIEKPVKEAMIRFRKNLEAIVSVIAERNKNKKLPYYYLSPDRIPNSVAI
The assay can be described thus: 5-HETE production by high speed supernatant of RBL-1 cells. The assay is classed as biochemical. How it is done:
(§1) For in vitro experiments, compounds were dissolved at appropriate concentrations in ethanol or DMSO (dimethylsulfoxide) (final concentration≤1.0%) and then diluted to final concentrations using the buffers indicated in the text.
(§2) The activities of these enzymes in extracts of RBL-1 cells were assayed using the method of Jakschik and Lee, Nature, 287, 51-52 (1980). RBL-1 cells were obtained from the American Type Culture Collection (#CRL 1378) and were grown at 37° C. (5% CO2 in air) in spinner culture in MEM supplemented with 10% heat inactivated fetal calf serum. Harvested cells were washed with 50 mM sodium phosphate buffer, pH 7.0, containing 1 mM EDTA and 0.1% gelatin, resuspended in fresh buffer (5×10^7 cells/ml) and disrupted by nitrogen cavitation using the Parr bomb at 750 psi for 10 min. The broken cell extract was then centrifuged at 10,000× g for 20 minutes (min) and the supernatant centrifuged at 100,000 xIg for 60 min. Aliquots (0.25 mls) of the supernatant were preincubated with or without drugs for 10 min, after which 10 μl CaCl2 (50 mM) was added and the reaction was initiated with 2.5 μl of 2.5 mM arachidonic acid-1-^14 C (final concentration was 25 μM; specific activity 20,000 dpm/nmole). After incubation for 3 min at 37° C., the reaction was terminated by addition of 2 volumes (0.5 ml) ice cold acetone and the sample was allowed to deproteinize on ice for 10 min prior to centrifugation at 1,000× g for 10 min. The deproteinized supernatant was adjusted to pH 3.5 with 2N formic acid and extracted with 2 volumes of ice cold ethyl acetate. The extracted samples were dried under argon, redissolved in ethyl acetate and applied to Whatman LK5D thin layer chromatography (TLC) plates which were developed using the A-9 solvent system [organic phase of ethyl acetate: 2,2,5-trimethylpentane:acetic acid: water (110:50:20:10)] described by Hamberg and Samuelsson, J. Biol. Chem., 241, 257-263 (1966). Arachidonic acid, 5-HETE, LTB4 and PGD2 were quantified with a Berthold LB 2832 autoscanner.
(§3) The 5-lipoxygenase and LTA4 synthetase activities were further studied under the following conditions. An additional centrifugation of the RBL-1 supernatant was run at 100,000× g for 60 min, to remove the particulate cyclooxygenase activity. Sample incubation was done under conditions similar to those described above, i.e., 2 mM CaCl2 and […] arachidonic acid-1-^14 C, however, with an incubation time of 5 min at 5° C. Under these conditions, only the 5-lipoxygenase pathway metabolites were detectable. The 5-HETE and di-HETEs were formed at a linear rate, and substantial amounts of the arachidonic acid-1-^14 C substrate were utilized.

Assay [2] deals with 5-lipoxygenase and LTA4 synthetase. The assay can be described thus: Di-HETE / LTB4 production by high speed supernatant of RBL-1 cells. The assay is classed as biochemical. How it is done: as §1, §2, §3
Assay [3] has as its system LTC4 production by human monocytes. The assay can be described thus: LTC4 production by human monocytes. The assay is classed as cell-based. The conditions noted are these: Monocyte; A23187-stimulated human monocytes. How it is done:
The compounds of Formula (I) were evaluated for their ability to inhibit the production of LTC4 by human monocytes according to the following assay. Human monocytes were prepared from whole blood supplied by the American Red Cross. The blood was fractinated by a two-step procedure employing sedimentation on Ficoll followed by sedimentation on Percoll. […] Non-adherent cells were removed by washing. […] When drugs were evaluated, they were added to the cells 30 minutes prior to the A23187. Supernatants were collected, […] by centrifugation and stored frozed at -20° C. until assay. The LTC4 content was determined by using a New England Nuclear Leukotriene C-4 (^3 H) RIA Kit as per instructions.

In assay [4] the test system is LTB4 synthesis by peritoneal exudate cells. The assay can be described thus: Ex vivo production of LTB4 from peritoneal exudate cells of drug-treated mice. The settings on record: for inhibition at 100 mg/kg: Mus musculus, po, 100 mg/kg p.o. The assay is classed as in vivo, mouse. The text has this: In the following Examples where mice were used, they were male Balb/c mice (20-28 g), and where rats were used, they were male Lewis rats (180-210 g). All mice and rats were obtained from Charles River Breeding Laboratories, Kingston, N.Y. Within a single experiment, mice and rats were sex and age matched. Auranofin, phenidone, indomethacin, naproxen, and ibuprofen were each used as the free base. The compounds of Formula (I) were used either as the free base or in the appropriate salt form. Levamisole was used as the hydrochloride salt. […] Nordihydroguaiaretic acid (NDGA) was solubilized in dimethylacetamide and diluted with olive oil for subcutaneous administration. Carrageenan-induced peritoneal exudate cells from normal or drug-treated mice were washed and suspended in 2.2 ml of phosphate buffered saline. […] The cell preparation was centrifuged at 1500 rpm for 10 min and the supernatant was extracted using a C-18 silica column. […] A tetrahydrofuran, methanol, water, acetic acid (25:30:45: 0.1) solvent system, adjusted to pH 5.5 with ammonium hydroxide, was used at a flow rate of 0.7 ml/min. Cell derived LTB4 was quantified utilizing standard curves constructed with known amounts of synthetic LTB4.

In assay [5] the target is T1, 5-Lipoxygenase. The assay can be described thus: 5-Lipoxygenase activity (5-HETE) in RBL-1 cell extracts, 10,000 x g supernatant. Type of assay: biochemical. The conditions noted are these: Table 8.
Method: RBL-1 cells were obtained from the American Type Culture Collection (#CRL 1378) and were grown at 37° C. (5% CO2 in air) in spinner culture in MEM supplemented with 10% heat inactivated fetal calf serum. Harvested cells were washed with 50 mM sodium phosphate buffer, pH 7.0, containing 1 mM EDTA and 0.1% gelatin, resuspended in fresh buffer (5×10^7 cells/ml) and disrupted by nitrogen cavitation using the Parr bomb at 750 psi for 10 min. The broken cell extract was then centrifuged at 10,000× g for 20 minutes (min) and the supernatant centrifuged at 100,000 xIg for 60 min. Aliquots (0.25 mls) of the supernatant were preincubated with or without drugs for 10 min, after which 10 μl CaCl2 (50 mM) was added and the reaction was initiated with 2.5 μl of 2.5 mM arachidonic acid-1-^14 C (final concentration was 25 μM; specific activity 20,000 dpm/nmole). After incubation for 3 min at 37° C., the reaction was terminated by addition of 2 volumes (0.5 ml) ice cold acetone and the sample was allowed to deproteinize on ice for 10 min prior to centrifugation at 1,000× g for 10 min. […] Arachidonic acid, 5-HETE, LTB4 and PGD2 were quantified with a Berthold LB 2832 autoscanner.

In general, IC50 refers to the concentration at which inhibition is half-maximal. The term inhibition denotes the relative decrease from the control value, in per cent. With `Fc1ccc(-c2nc3n(c2-c2ccncc2)CCS3)cc1` [Compound 1], the 5-HETE at 5-Lipoxygenase [1] (1 μM) came to 8.86 ± 0.31 nM/ml; at 5-Lipoxygenase [1] (3.3 μM) it was 7.63 ± 0.44 nM/ml; at 5-Lipoxygenase [1] (10 μM) it was 5.57 ± 0.35 nM/ml; at 5-Lipoxygenase [1] (33 μM), 3.36 ± 0.07 nM/ml; on 5-Lipoxygenase [1] (100 μM) it was 1.08 ± 0.13 nM/ml. Also, the Di-HETE came to 1.56 ± 0.06 nM/ml in assay [2] (1 μM); 1.34 ± 0.12 nM/ml in assay [2] (3.3 μM); 0.88 ± 0.21 nM/ml in assay [2] (10 μM); 0.40 ± 0.08 nM/ml in assay [2] (33 μM); 0.03 ± 0.04 nM/ml in assay [2] (100 μM). The IC50 in assay [2] (soluble extract of RBL-1 cells containing only lipoxygenase activity, read-out: IC50, eicosanoid formation (LTB4 production)) came out at 7.5 µM; in assay [3], 1.8 µM. Further, the results for the inhibition at 100 mg/kg in assay [4] (Experiment 1), in assay [4] (Experiment 2) and in assay [4] (Experiment 3) were 90%, 23% and 100%, respectively. The “LTB4 production ex vivo, result in words” value in assay [4] (mouse, in vivo) is on record as “Impairment of LTB4 production”.
Turning to `COc1ccc2c(c1)c(CC(=O)O)c(C)n2C(=O)c1ccc(Cl)cc1` [Indomethacin], in assay [2] (indomethacin: concentrations up to 10^-4 M), the “Inhibition of eicosanoid formation / LTB4, result in words” value was “inactive”. The “IC50 5-Lipoxygenase” value on 5-Lipoxygenase [5] is listed as “Inactive @ 30”.
